We go through nine compounds from ChEMBL document CHEMBL1681684, “Structure based design of heat shock protein 90 inhibitors acting as anticancer agents” (Bioorg Med Chem, 2011).

For orientation: IC50 means the midpoint of a concentration-inhibition curve. The inhibition is the share of the control response that was lost under treatment.

For the first experiment, the system named is SK-MEL-2. The experiment is described as follows: Anticancer activity against human SK-MEL-2 cells by MTT assay. Format: functional, cell-based. In general terms: Formazan colour is commonly taken as a measure of viable cells.
`CCC(C)(C)c1ccc(O)c(NS(=O)(=O)c2ccccc2OC(F)(F)F)c1` showed an IC50 of 53.6 µM.
`O=[N+]([O-])c1cccnc1Sc1ccccc1NS(=O)(=O)c1ccc(Cl)cc1Cl`: the IC50 worked out at 42.3 µM.

A further experiment relates to DU-145. The experiment is described as follows: Anticancer activity against human DU145 cells assessed as growth inhibition at 100 uM by MTT assay. Format: functional.
Take `CCC(C)(C)c1ccc(O)c(NS(=O)(=O)c2ccccc2OC(F)(F)F)c1`: the inhibition at 100 µM was found to be 60.1%.
With `O=[N+]([O-])c1cccnc1Sc1ccccc1NS(=O)(=O)c1ccc(Cl)cc1Cl`, the inhibition at 100 µM was determined as 54.5%.

Another experiment has as its system SK-MEL-2. Description: Anticancer activity against human SK-MEL-2 cells assessed as growth inhibition at 100 uM by MTT assay. The experiment is classed as functional.
`Cc1cccc(Nc2nc(NCc3ccco3)c3ccccc3n2)c1`: the inhibition at 100 µM came to 78.7%.
Still for that read-out and setting: as for `CCC(C)(C)c1ccc(O)c(NS(=O)(=O)c2ccccc2OC(F)(F)F)c1`, the figure is 52.4%; as for `O=[N+]([O-])c1cccnc1Sc1ccccc1NS(=O)(=O)c1ccc(Cl)cc1Cl`, 40.1%.
The same measure, in the same setting: to `CN(C)CCNc1nc(-c2ccc(C(C)(C)C)cc2)nc2ccccc12` belongs 89.6%; to `Oc1ccc(Nc2nc(NCc3ccco3)c3ccccc3n2)cc1`, 86.2%.
The same measure, in the same setting: as for `Oc1cccc(Nc2nc(NCc3ccccc3)c3ccccc3n2)c1`, the figure is 78.9%.
`Fc1ccc(Nc2nc(NCc3ccccc3)c3ccccc3n2)cc1`: the inhibition at 100 µM was 89.9%.
For `CCOc1ccc(Nc2nc(NCc3ccccc3)c3ccccc3n2)cc1`, the inhibition at 100 µM was 88%.
For `COc1ccc(Nc2nc(NCc3ccccc3)c3ccccc3n2)cc1`, the inhibition at 100 µM came to 89.3%.

The test system of another experiment is SK-MEL-2. The experiment is described as follows: Anticancer activity against human SK-MEL-2 cells assessed as growth inhibition at 10 uM by MTT assay. Format: functional.
Take `Cc1cccc(Nc2nc(NCc3ccco3)c3ccccc3n2)c1`: the inhibition at 10 µM was found to be 77.6%.
Same read-out and setting: to `CN(C)CCNc1nc(-c2ccc(C(C)(C)C)cc2)nc2ccccc12` belongs 91.5%; to `Oc1ccc(Nc2nc(NCc3ccco3)c3ccccc3n2)cc1`, 39%; to `Oc1cccc(Nc2nc(NCc3ccccc3)c3ccccc3n2)c1`, 46.7%.
Same read-out and setting: as for `Fc1ccc(Nc2nc(NCc3ccccc3)c3ccccc3n2)cc1`, the figure is 69.9%; as for `CCOc1ccc(Nc2nc(NCc3ccccc3)c3ccccc3n2)cc1`, 91.6%.
Same read-out and setting: as for `COc1ccc(Nc2nc(NCc3ccccc3)c3ccccc3n2)cc1`, the figure is 81.2%.

Another experiment has as its system HT-29. Description: Anticancer activity against human HT-29 cells assessed as growth inhibition at 100 uM by MTT assay. The experiment is classed as functional.
As for `Cc1cccc(Nc2nc(NCc3ccco3)c3ccccc3n2)c1`, the inhibition at 100 µM was determined as 93.6%.
Same read-out and setting: as for `CCC(C)(C)c1ccc(O)c(NS(=O)(=O)c2ccccc2OC(F)(F)F)c1`, the figure is 37.5%; as for `O=[N+]([O-])c1cccnc1Sc1ccccc1NS(=O)(=O)c1ccc(Cl)cc1Cl`, 44.6%; as for `CN(C)CCNc1nc(-c2ccc(C(C)(C)C)cc2)nc2ccccc12`, 93.4%.
For the compound `Oc1ccc(Nc2nc(NCc3ccco3)c3ccccc3n2)cc1`, the inhibition at 100 µM came to 93.3%.
The same measure, in the same setting: to `Oc1cccc(Nc2nc(NCc3ccccc3)c3ccccc3n2)c1` belongs 81.9%.
On the same count and under the same terms, as for `Fc1ccc(Nc2nc(NCc3ccccc3)c3ccccc3n2)cc1`, the figure is 93.4%; as for `CCOc1ccc(Nc2nc(NCc3ccccc3)c3ccccc3n2)cc1`, 92.9%; as for `COc1ccc(Nc2nc(NCc3ccccc3)c3ccccc3n2)cc1`, 92.9%.

In the next experiment the test system is SK-OV-3. Description: Anticancer activity against human SKOV3 cells by MTT assay. Format: functional, cell-based.
The compound `CCC(C)(C)c1ccc(O)c(NS(=O)(=O)c2ccccc2OC(F)(F)F)c1` yielded an IC50 of 38.8 µM.
On the same count and under the same terms, as for `O=[N+]([O-])c1cccnc1Sc1ccccc1NS(=O)(=O)c1ccc(Cl)cc1Cl`, the figure is 70 µM.

In a further experiment the test system is A549. Description: Anticancer activity against human A549 cells assessed as growth inhibition at 100 uM by MTT assay. Format: functional.
With `CCC(C)(C)c1ccc(O)c(NS(=O)(=O)c2ccccc2OC(F)(F)F)c1`, the inhibition at 100 µM is 50.9%.
Same read-out and setting: as for `O=[N+]([O-])c1cccnc1Sc1ccccc1NS(=O)(=O)c1ccc(Cl)cc1Cl`, the figure is 47.9%.

The subject of the next experiment is HT-29. The experiment is described as follows: Anticancer activity against human HT-29 cells by MTT assay. Format: functional, cell-based.
As to `Cc1cccc(Nc2nc(NCc3ccco3)c3ccccc3n2)c1`, the IC50 was determined as 10.1 µM.
The same measure, in the same setting: as for `CCC(C)(C)c1ccc(O)c(NS(=O)(=O)c2ccccc2OC(F)(F)F)c1`, the figure is 24.1 µM; as for `O=[N+]([O-])c1cccnc1Sc1ccccc1NS(=O)(=O)c1ccc(Cl)cc1Cl`, 63.1 µM.
`CN(C)CCNc1nc(-c2ccc(C(C)(C)C)cc2)nc2ccccc12`: the midpoint of inhibition, the IC50, lay at 8.72 µM.
`Oc1ccc(Nc2nc(NCc3ccco3)c3ccccc3n2)cc1` had an IC50 of 14 µM.
On the same count and under the same terms, to `Oc1cccc(Nc2nc(NCc3ccccc3)c3ccccc3n2)c1` belongs 15.8 µM; to `Fc1ccc(Nc2nc(NCc3ccccc3)c3ccccc3n2)cc1`, 2.41 µM; to `CCOc1ccc(Nc2nc(NCc3ccccc3)c3ccccc3n2)cc1`, 16.5 µM.
Same read-out and setting: as for `COc1ccc(Nc2nc(NCc3ccccc3)c3ccccc3n2)cc1`, the figure is 13.4 µM.

The test system of another experiment is SK-OV-3. Description: Anticancer activity against human SKOV3 cells assessed as growth inhibition at 100 uM by MTT assay. Format: functional.
Turning to `Cc1cccc(Nc2nc(NCc3ccco3)c3ccccc3n2)c1`, the inhibition at 100 µM amounted to 93.3%.
Still for that read-out and setting: to `CCC(C)(C)c1ccc(O)c(NS(=O)(=O)c2ccccc2OC(F)(F)F)c1` belongs 46.4%; to `O=[N+]([O-])c1cccnc1Sc1ccccc1NS(=O)(=O)c1ccc(Cl)cc1Cl`, 44%.
The same measure, in the same setting: to `CN(C)CCNc1nc(-c2ccc(C(C)(C)C)cc2)nc2ccccc12` belongs 92.3%.
The same measure, in the same setting: to `Oc1ccc(Nc2nc(NCc3ccco3)c3ccccc3n2)cc1` belongs 92.3%.
For `Oc1cccc(Nc2nc(NCc3ccccc3)c3ccccc3n2)c1`, the inhibition at 100 µM is 85.5%.
Still for that read-out and setting: as for `Fc1ccc(Nc2nc(NCc3ccccc3)c3ccccc3n2)cc1`, the figure is 91.3%.
Still for that read-out and setting: as for `CCOc1ccc(Nc2nc(NCc3ccccc3)c3ccccc3n2)cc1`, the figure is 91.8%; as for `COc1ccc(Nc2nc(NCc3ccccc3)c3ccccc3n2)cc1`, 92.3%.

For a further experiment, the system named is DU-145. The experiment is described as follows: Anticancer activity against human DU145 cells assessed as growth inhibition at 10 uM by MTT assay. Format: functional.
With `Cc1cccc(Nc2nc(NCc3ccco3)c3ccccc3n2)c1`, the inhibition at 10 µM came out at 53.7%.
With `CN(C)CCNc1nc(-c2ccc(C(C)(C)C)cc2)nc2ccccc12`, the inhibition at 10 µM was found to be 86.5%.
Regarding `Oc1ccc(Nc2nc(NCc3ccco3)c3ccccc3n2)cc1`, the inhibition at 10 µM was determined as 30.3%.
Same read-out and setting: as for `Oc1cccc(Nc2nc(NCc3ccccc3)c3ccccc3n2)c1`, the figure is 35%.
The same measure, in the same setting: as for `Fc1ccc(Nc2nc(NCc3ccccc3)c3ccccc3n2)cc1`, the figure is 38.2%; as for `CCOc1ccc(Nc2nc(NCc3ccccc3)c3ccccc3n2)cc1`, 58%; as for `COc1ccc(Nc2nc(NCc3ccccc3)c3ccccc3n2)cc1`, 52.2%.

A further experiment concerns DU-145. The experiment is described as follows: Anticancer activity against human DU145 cells by MTT assay. Format: functional, cell-based.
In turn, `Cc1cccc(Nc2nc(NCc3ccco3)c3ccccc3n2)c1` had an IC50 of 19.7 µM.
With `CCC(C)(C)c1ccc(O)c(NS(=O)(=O)c2ccccc2OC(F)(F)F)c1`, the IC50 is > 100 µM.
`O=[N+]([O-])c1cccnc1Sc1ccccc1NS(=O)(=O)c1ccc(Cl)cc1Cl` came in with an IC50 of 53.9 µM.
Still for that read-out and setting: to `CN(C)CCNc1nc(-c2ccc(C(C)(C)C)cc2)nc2ccccc12` belongs > 50 µM; to `Oc1ccc(Nc2nc(NCc3ccco3)c3ccccc3n2)cc1`, 22.7 µM.
On the same count and under the same terms, to `Oc1cccc(Nc2nc(NCc3ccccc3)c3ccccc3n2)c1` belongs 22.6 µM; to `Fc1ccc(Nc2nc(NCc3ccccc3)c3ccccc3n2)cc1`, 23.4 µM.
Same read-out and setting: to `CCOc1ccc(Nc2nc(NCc3ccccc3)c3ccccc3n2)cc1` belongs 19.2 µM; to `COc1ccc(Nc2nc(NCc3ccccc3)c3ccccc3n2)cc1`, 21.3 µM.

The subject of another experiment is A549. The experiment is described as follows: Anticancer activity against human A549 cells by MTT assay. The experiment is classed as functional, cell-based.
In turn, `CCC(C)(C)c1ccc(O)c(NS(=O)(=O)c2ccccc2OC(F)(F)F)c1` came in with an IC50 of 38.8 µM.
Compound `O=[N+]([O-])c1cccnc1Sc1ccccc1NS(=O)(=O)c1ccc(Cl)cc1Cl` had an IC50 of 26 µM.

A further experiment deals with HT-29. The experiment is described as follows: Anticancer activity against human HT-29 cells assessed as growth inhibition at 10 uM by MTT assay. The experiment is classed as functional.
With `Cc1cccc(Nc2nc(NCc3ccco3)c3ccccc3n2)c1`, the inhibition at 10 µM amounted to 77.9%.
Turning to `CN(C)CCNc1nc(-c2ccc(C(C)(C)C)cc2)nc2ccccc12`, the inhibition at 10 µM was found to be 89.8%.
Same read-out and setting: as for `Oc1ccc(Nc2nc(NCc3ccco3)c3ccccc3n2)cc1`, the figure is 67.6%; as for `Oc1cccc(Nc2nc(NCc3ccccc3)c3ccccc3n2)c1`, 61.3%.
Same read-out and setting: as for `Fc1ccc(Nc2nc(NCc3ccccc3)c3ccccc3n2)cc1`, the figure is 74.4%.
Consider `CCOc1ccc(Nc2nc(NCc3ccccc3)c3ccccc3n2)cc1`, for which the inhibition at 10 µM was found to be 83.3%.
`COc1ccc(Nc2nc(NCc3ccccc3)c3ccccc3n2)cc1`: the inhibition at 10 µM turned out to be 80.7%.
